Results from PubChem BioAssay AID1963850 (Molecular Pharmacology Branch, DTP, NCI, 2024).

Test system: 192522-019-R-J2-PDC complex tumor spheroid viability
Assay: Anticancer human tumor 192522-019-R-J2-PDC patient-derived colon adenocarcinoma cell line growth inhibition [POLQ]
Details: for IC50: curve of first compound; for viability, T/C: stronger effect = lower value
How it was run: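 Complex spheroid viability model combining PDC tumour cells with endothelial (HUVEC) and MSC stromal cells. Novobiocin, ART-558 or RP6685 were tested singly and in combination with standard and investigational anticancer drugs. Each was titrated in half-log steps from near clinical Cmax, or from 10 microM where Cmax was unknown.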

[1] = second compound 0.0316 µM, first compound 0.0316 µM
[2] = second compound 0.0316 µM, first compound 0.1 µM
[3] = second compound 0.0316 µM, first compound 0.316 µM
[4] = second compound 0.0316 µM, first compound 1 µM
[5] = second compound 0.0316 µM, first compound 3.16 µM
[6] = second compound 0.0316 µM, first compound 10 µM
[7] = second compound 0.1 µM, first compound 0.0316 µM
[8] = second compound 0.1 µM, first compound 0.1 µM
[9] = second compound 0.1 µM, first compound 0.316 µM
[10] = second compound 0.1 µM, first compound 1 µM
[11] = second compound 0.1 µM, first compound 3.16 µM
[12] = second compound 0.1 µM, first compound 10 µM
[13] = second compound 0.316 µM, first compound 0.0316 µM
[14] = second compound 0.316 µM, first compound 0.1 µM
[15] = second compound 0.316 µM, first compound 0.316 µM
[16] = second compound 0.316 µM, first compound 1 µM
[17] = second compound 0.316 µM, first compound 3.16 µM
[18] = second compound 0.316 µM, first compound 10 µM
[19] = second compound 1 µM, first compound 0.0316 µM
[20] = second compound 1 µM, first compound 0.1 µM
[21] = second compound 1 µM, first compound 0.316 µM
[22] = second compound 1 µM, first compound 1 µM
[23] = second compound 1 µM, first compound 3.16 µM
[24] = second compound 1 µM, first compound 10 µM
[25] = second compound 3.16 µM, first compound 0.0316 µM
[26] = second compound 3.16 µM, first compound 0.1 µM
[27] = second compound 3.16 µM, first compound 0.316 µM
[28] = second compound 3.16 µM, first compound 1 µM
[29] = second compound 3.16 µM, first compound 3.16 µM
[30] = second compound 3.16 µM, first compound 10 µM
[31] = second compound 10 µM, first compound 0.0316 µM
[32] = second compound 10 µM, first compound 0.1 µM
[33] = second compound 10 µM, first compound 0.316 µM
[34] = second compound 10 µM, first compound 1 µM
[35] = second compound 10 µM, first compound 3.16 µM
[36] = second compound 10 µM, first compound 10 µM
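Also: spheroids exposed to drugs for seven days before reading.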
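For viability, T/C in this document: 100% = DMSO vehicle control viability in luminescence.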

C#Cc1c(F)ccc2cc(O)cc(-c3ncc4c(N5CC6CCC(C5)N6)nc(OCC56CCCN5CC(F)C6)nc4c3F)c12 (centres undefined) + Nc1ccc(C#CCN(C(=O)Cc2ncc(C(F)(F)F)cc2C(F)(F)F)c2ccc(F)cc2)nn1
IC50 (second compound 0.0316 µM): > 10 µM
IC50 (second compound 0.1 µM): > 10 µM
IC50 (second compound 0.316 µM): > 10 µM
IC50 (second compound 1 µM): > 10 µM
IC50 (second compound 3.16 µM): > 10 µM
IC50 (second compound 10 µM): > 10 µM
viability, T/C [1]: 93.8%
viability, T/C [2]: 88.8%
viability, T/C [3]: 78.2%
viability, T/C [4]: 80.9%
viability, T/C [5]: 67.9%
viability, T/C [6]: 68.5%
viability, T/C [7]: 92.8%
viability, T/C [8]: 89.3%
viability, T/C [9]: 72.7%
viability, T/C [10]: 80.8%
viability, T/C [11]: 74.5%
viability, T/C [12]: 73.3%
viability, T/C [13]: 88.8%
viability, T/C [14]: 82.3%
viability, T/C [15]: 75.3%
viability, T/C [16]: 69.7%
viability, T/C [17]: 68.2%
viability, T/C [18]: 76.2%
viability, T/C [19]: 89.5%
viability, T/C [20]: 76.2%
viability, T/C [21]: 78.7%
viability, T/C [22]: 77.8%
viability, T/C [23]: 78%
viability, T/C [24]: 70.7%
viability, T/C [25]: 97.9%
viability, T/C [26]: 81.7%
viability, T/C [27]: 71.7%
viability, T/C [28]: 73.2%
viability, T/C [29]: 78.4%
viability, T/C [30]: 70.4%
viability, T/C [31]: 91.9%
viability, T/C [32]: 79.5%
viability, T/C [33]: 80.2%
viability, T/C [34]: 77.2%
viability, T/C [35]: 73.7%
viability, T/C [36]: 79.8%

O=C(Nc1ccc(O)c(NS(=O)(=O)c2ccc(F)cc2)c1)c1ccc(-c2ccccc2)cc1 + Nc1ccc(C#CCN(C(=O)Cc2ncc(C(F)(F)F)cc2C(F)(F)F)c2ccc(F)cc2)nn1
IC50 (second compound 0.0316 µM): > 10 µM
IC50 (second compound 0.1 µM): > 10 µM
IC50 (second compound 0.316 µM): > 10 µM
IC50 (second compound 1 µM): > 10 µM
IC50 (second compound 3.16 µM): > 10 µM
IC50 (second compound 10 µM): > 10 µM
viability, T/C [1]: 104%
viability, T/C [2]: 101%
viability, T/C [3]: 94.6%
viability, T/C [4]: 99.2%
viability, T/C [5]: 104%
viability, T/C [6]: 98.3%
viability, T/C [7]: 109%
viability, T/C [8]: 103%
viability, T/C [9]: 94%
viability, T/C [10]: 87.9%
viability, T/C [11]: 102%
viability, T/C [12]: 103%
viability, T/C [13]: 97.2%
viability, T/C [14]: 101%
viability, T/C [15]: 94.9%
viability, T/C [16]: 105%
viability, T/C [17]: 105%
viability, T/C [18]: 100%
viability, T/C [19]: 110%
viability, T/C [20]: 98.2%
viability, T/C [21]: 97.5%
viability, T/C [22]: 91.6%
viability, T/C [23]: 101%
viability, T/C [24]: 102%
viability, T/C [25]: 99.4%
viability, T/C [26]: 106%
viability, T/C [27]: 102%
viability, T/C [28]: 110%
viability, T/C [29]: 107%
viability, T/C [30]: 111%
viability, T/C [31]: 103%
viability, T/C [32]: 103%
viability, T/C [33]: 109%
viability, T/C [34]: 107%
viability, T/C [35]: 111%
viability, T/C [36]: 103%
